PMC7002245 (European journal of medicinal chemistry, 2019)
Where two headings read alike, the source gives them in different places.

Legend:
rhinovirus B5 = type: cell-based; conditions: HeLa cells, CPE inhibition, 72 h post infection; n/a = not active (max 100 μM)
coxsackievirus B3 Nancy = type: cell-based; conditions: HeLa cells, CPE inhibition, 48 h post infection; n/a = not active (max 100 μM)
[1] = test system: coxsackievirus B3 97927 I1207K I1092; type: cell-based
E. coli PQ37 = experiment: microbe, parasite or virus in culture; type: cell-based; conditions: Escherichia coli
[2] = Pharmacokinetic study in mice after intragastric administration; type: in vivo
CYP3A4 = conditions: human, hepatocytes
rhinovirus B14 = type: cell-based; conditions: HeLa cells, CPE inhibition, 72 h post infection; n/a = not active (max 100 μM)

## COC(=O)c1cc(CCCOc2c(C)cc(-c3noc(C(F)(F)F)n3)cc2C)on1 [6a, 3-(3,5-Dimethyl-4-(3-(3-carbmethoxy-isoxazol-5-yl)propoxy)phenyl)-5-trifluoromethyl-1,2,4-oxadiazole]
Rhinovirus B5
  IC50 towards rhinovirus B5: no activity

## CCOC(=O)c1cc(CCCOc2ccc(-c3noc(C(F)(F)F)n3)cc2)on1 [6c, 3-(4-(3-(3-Carbethoxy-isoxazol-5-yl)propoxy)phenyl)-5-trifluoromethyl-1,2,4-oxadiazole]
Coxsackievirus B3 Nancy
  IC50 towards coxsackievirus B3 Nancy: inactive
[1]
  IC50 towards coxsackievirus B3 97927 I1207K I1092: inactive
Rhinovirus B5
  IC50 towards rhinovirus B5: inactive

## CNC(=O)c1cc(CCCOc2c(C)cc(-c3noc(C(F)(F)F)n3)cc2C)on1 [10b, 3-(3,5-Dimethyl-4-(3-(3-methylcarbamoyl-isoxazol-5-yl)propoxy)phenyl)-5-trifluoromethyl-1,2,4-oxadiazole]
E. coli PQ37
  zone of inhibition at 10000 µg/mL: 0 mm

## Cc1cc(-c2noc(C(F)(F)F)n2)cc(C)c1OCCCc1cc(C(=O)N(C)C)no1 [10e, 3-(3,5-Dimethyl-4-(3-(3-N,N-dimethylcarbamoyl-isoxazol-5-yl)propoxy)phenyl)-5-trifluoromethyl-1,2,4-oxadiazole]
E. coli PQ37
  zone of inhibition at 10000 µg/mL: 0 mm

## Cc1cc(-c2noc(C(F)(F)F)n2)ccc1OCCCc1cc(C(=O)N(C)C)no1 [10g, 3-(3-Methyl-4-(3-(3-N,N-dimethylcarbamoyl-isoxazol-5-yl)propoxy)phenyl)-5-trifluoromethyl-1,2,4-oxadiazole]
E. coli PQ37
  zone of inhibition at 10000 µg/mL: 0 mm
[2]; 100 mg/kg intragastric
  bioavailability: very high bioavailability
[2]; 100 mg/kg single dose intragastric, CL = dose/AUC0-∞
  CL: 0.66 h⁻¹
CYP3A4; 1 μM
  induction of CYP3A4 (fold): 1.2 x
  induction of CYP3A4, % of control: 3%
CYP3A4; 10 μM
  induction of CYP3A4 (fold): 1.4 x
  induction of CYP3A4, % of control: 7%

## CN(C)C(=O)c1cc(CCCOc2ccc(-c3noc(C(F)(F)F)n3)cc2[N+](=O)[O-])on1 [10i, 3-(3-Nitro-4-(3-(3-N,N-dimethylcarbamoyl-isoxazol-5-yl)propoxy)phenyl)-5-trifluoromethyl-1,2,4-oxadiazole]
E. coli PQ37
  zone of inhibition at 10000 µg/mL: 0 mm

## CN(C)C(=O)c1cc(CCCOc2ccc(-c3noc(C(F)(F)F)n3)cc2C(F)(F)F)on1 [10k, 3-(3-Trifluoromethyl-4-(3-(3-N,N-dimethylcarbamoyl-isoxazol-5-yl)propoxy)phenyl)-5-trifluoromethyl-1,2,4-oxadiazole]
E. coli PQ37
  zone of inhibition at 10000 µg/mL: 0 mm

## CNC(=O)c1cc(CCCOc2ccc(-c3noc(C(F)(F)F)n3)cc2C(F)(F)F)on1 [10m, 3-(3-Trifluoromethyl-4-(3-(3-methylcarbamoyl-isoxazol-5-yl)propoxy)phenyl)-5-trifluoromethyl-1,2,4-oxadiazole]
Rhinovirus B14
  IC50 towards rhinovirus B14: did not totally inhibit
[1]
  IC50 towards coxsackievirus B3 97927 I1207K I1092: no activity
Rhinovirus B5
  IC50 towards rhinovirus B5: did not totally inhibit

## Cc1cc(CCCOc2c(C)cc(-c3noc(C(F)(F)F)n3)cc2C)on1 [P, pleconaril, reference compound]
CYP3A4; 1 μM
  induction of CYP3A4, % of control: 13%
CYP3A4; 10 μM
  induction of CYP3A4, % of control: 30%
